Data on seven compounds can be found in patent US20100069395A1, “Pyrazolo[1,5-a]pyrimidine-3-carboxylic acid compounds as protein kinase inhibitors” (priority 2006, published 2010).

`Cc1ccc(NC(=O)c2ccc(F)c(C(F)(F)F)c2)cc1NC(=O)c1cnc2ccnn2c1` [Example 6, Pyrazolo[1,5-a]pyrimidine-6-carboxylic acid[5-(4-fluoro-3-trifluoromthyl-benzoylamino)-2-methyl-phenyl]-amide]: the melting point was 267 to 269 °C.

In turn, `COc1ccc(-c2cnn3cc(C(=O)Nc4c(C)cccc4C)cnc23)cc1OC` [Example 5, 3-(3,4-Dimethoxy-phenyl)-pyrazolo[1,5-a]pyrimidine-6-carboxylic acid (2,6-dimethylphenyl)-amide] came in with a melting point of 230 to 232 °C.

On to `Cc1ccc(C(=O)Nc2cccc(C(F)(F)F)c2)cc1NC(=O)C1=CNc2ccnn2C1` [Example 3, 4,7-Dihydro-pyrazolo[1,5-a]pyrimidine-6-carboxylic acid [2-methyl-5-(3-trifluoromethyl-phenylcarbamoyl)-phenyl]-amide], for which the melting point was in the range of 259 to 263 °C.

`COc1ccc(C(=O)Nc2ccc(C)c(NC(=O)c3cnc4ccnn4c3)c2)cc1C(F)(F)F` [Example 7, Pyrazolo[1,5-a]pyrimidine-6-carboxylic acid[5-(4-methoxy-3-trifluoromethyl-benzoylamino)-2-methyl-phenyl]-amide]: the melting point was in the range of 256 to 258 °C.

`Cc1ccc(NC(=O)c2cccc(C(F)(F)F)c2)cc1NC(=O)c1cnc2ccnn2c1` [Example 2, Pyrazolo[1,5-a]pyrimidine-6-carboxylic acid[2-methyl-5-(3-trifluoromethyl-benzoylamino)-phenyl]-amide] displayed a melting point of 239 to 241 °C.

In the case of `Cc1ccc(C(=O)Nc2cccc(C(F)(F)F)c2)cc1NC(=O)c1cnc2ccnn2c1` [Example 1, Pyrazolo[1,5-a]pyrimidine-6-carboxylic acid[2-methyl-5-(3-trifluoromethyl-phenylcarbamoyl)-phenyl]-amide], the melting point fell in the range of 222 to 224 °C.

For `Cc1cccc(C)c1NC(=O)c1cnc2c(-c3cccc(N4CCN(C)CC4)c3)cnn2c1` [Example 4, 3-[3-(4-Methyl-piperazin-1-yl)-phenyl]-pyrazolo[1,5-a]pyrimidine-6-carboxylic acid(2,6-dimethyl-phenyl)-amide], the melting point fell in the range of 227 to 229 °C.

Usually melting point stands for the temperature, or range, at which the solid turns liquid.
